Entries after “also recorded” stand apart in the source; their conditions may differ.
Key:
[1] = tested on: peptidylprolyl isomerase B (PPIB) mRNA; test: siRNA delivery and real time RT PCR (PPIB mRNA knockdown in PC-3 cells); format: cell-based; details: siRNA complexed with tag, real-time PCR
Description: A small library of 14 chemicals that represent various lipophilicities while sharing a carboxylic acid group for easy conjugation with ethidium was screened. These hydrophobic compounds were chemically linked to ethidium via a hexacarbon (C6) linker. The resulting small-molecule tags were mixed with a model siRNA sequence against peptidylprolyl isomerase B (PPIB) and tested on a prostate tumor cell line, PC-3, for RNAi.
PC-3 cells were seeded in 24-well plate at density of 5,000 cells per well. […] Total RNA was isolated from the cell monolayer using Trizol reagent (Invitrogen) according to the manufacturer's protocol. 200 nanograms of RNA was converted to cDNA using random hexamer primer and MultiScribe Reverse Transcriptase Reagent (Applied Biosystems, Inc., Branchburg, N.J.). 100 nanograms of cDNA was amplified by SensiFast SYBR kit (Bioline, Taunton, Mass.) on a Chromo4™ Real-Time system (Bio-Rad, Hercules, Calif.). The primers used for PPIB amplification were 5′-[…]-3′ (forward primer; SEQ ID NO:6) and 5′-[…]-3′ (reverse primer; SEQ ID NO:7). Primers for detection of 18s were 5′-[…]-3′ (forward primer; SEQ ID NO:8) and 5′-[…]-3′ (reverse primer; SEQ ID NO:9).

actin in HeLa cells = test: F-actin labeling in live cells using LifeAct-GFP; format: cell-based
Description: Lastly, two applications that should have a major impact on biology and medicine, immunofluorescence in live cells, and delivery of therapeutic proteins inside cells were assessed for compatibility with the disclosed tag approach for cytosolic delivery. Immunofluorescence, one of the most common techniques in biological and medical research, is currently used to profile cell surface markers on live cells (e.g., many flow cytometry studies) missing all the key cell signaling nodes inside cells. Alternatively, immunofluorescence is currently used on fixed cells, missing the temporal dynamics of active cell signaling that determines cell fate, behavior, communications, and growth. […] Briefly, HeLa cells were incubated with cholesterol-tagged LifeAct-GFP or LifeAct-GFP alone and the cells were imaged. […] To confirm the labeling specificity, cells were pretreated with cytochalasin-D before incubating with LifeAct-Tag.
HeLa cells were seeded onto glass-bottom dishes. After one-day of culturing, cells were incubated with fresh media containing tagged LifeAct-GFP for 4 h at 37° C., followed by washing and counterstaining Hoechst 33258. The cells were imaged on an Olympus fluorescence microscope equipped with a true-color CCD, Qcolor 5.

siRNA [2] = test: Intercalation into siRNA monitored by fluorescence activation; format: binding; details: for fluorescence activation upon intercalation into siRNA: compared with DNA (positive control); for intercalation of tag into siRNA (fluorescence enhancement): compared to tag 5
Description: To test this new concept of cytosolic delivery, a conjugation-free methodology was investigated that incorporated small chemical tags to transform siRNA sufficiently hydrophobic, membrane-permeant, and self-deliverable. […] For a proof of concept, a number of existing oligonucleotide intercalators were tested, due to their potential to non-covalently attach the lipophilic moiety to siRNA. Although DNA intercalating dyes are well-studied and broadly available, selection of dsRNA intercalators is limited. […] DNA intercalating dyes apply a stretching force thus may or may not work on siRNA. Eight DNA intercalating dyes (molecular structures shown in FIG. 7) were evaluated utilizing a very convenient feature of these dyes, fluorescence activation upon intercalation into oligonucleotides. […] Therefore, ethidium was used in the following studies.
After 5-minute incubation, the mixture was diluted to 100 μL and the fluorescence was measured with the microplate reader. The fluorescence increment (J. B. Le Pecq, et al., DNA polyintercalating drugs: DNA binding of diacridine derivatives, Proc Natl Acad Sci USA 72(8) (1975) 2915-9; B. Gaugain, et al., DNA Bifunctional intercalators. 2. Fluorescence properties and DNA binding interaction of an ethidium homodimer and an acridine ethidium heterodimer, Biochemistry 17(24) (1978) 5078-88, each of which is incorporated herein by reference in its entirety), ΔIF, is the difference of fluorescence intensity of the tags in the presence or absence of siRNA.

siRNA [3] = test: Gel electrophoresis of siRNA with intercalators; details: high degree of intercalation
From the text: FIGS. 2A-2H illustrate tag design and characterizations. (FIG. 2A) Intercalation of conventional DNA intercalators into siRNA monitored by fluorescence activation. Ethidium and acridinium show similar fluorescence activation in both DNA and RNA, unlike the others. (FIG. 2B) Gel electrophoresis of siRNA with acridinium and ethidium at low and high degree of intercalation. […] (FIG. 2C) Screening hydrophobic compounds (after linking with ethidium) for mRNA (PPIB) knockdown in PC-3 cells. The numbers represent the compounds illustrated in FIG. 2D. Steroids such as cholesterol and stigmasterol offer the highest RNAi efficiency. (FIG. 2D) Molecular structures of the 14 exemplary chemical tags tested in the current study. The hydrophobic compounds are linked to ethidium via a C6 spacer. (FIG. 2E) Dose response of gene knockdown using siRNA tagged with ethidium-cholesterol (left) in PC-3 cells. […]
To test this new concept of cytosolic delivery, a conjugation-free methodology was investigated that incorporated small chemical tags to transform siRNA sufficiently hydrophobic, membrane-permeant, and self-deliverable. […] Eight DNA intercalating dyes (molecular structures shown in FIG. 7) were evaluated utilizing a very convenient feature of these dyes, fluorescence activation upon intercalation into oligonucleotides. […]

[4] = tested on: PC-3, MDA-MB-231, SK-BR-3, DU-145, KB, and HEK-293T; test: Cellular delivery of aprotinin-tag complex in additional cell types; format: cell-based; details: protein-tag complex; independent of the cell lines
Description: To further rule out the scenario that the tagged proteins initially enter cells via endocytosis followed by an efficient endosomal escape, the confocal microscopy experiment were performed again using the small protein, aprotinin, at 4° C., a temperature that blocks endocytic membrane trafficking. […] To evaluate the generality of this protein tagging technology, it was tested using […] additional cell types besides HeLa cells (i.e., PC-3, MDA-MB-231, SK-BR-3, DU-145, KB, and HEK-293T). Cells exposed to protein (aprotinin)-tag complex and then stained for protinin and WGA to show the cell boundary. […] Perhaps more importantly, protein transfection directly into the cytosol was also achieved in further experiments of primary cells including human adipose-derived stem cells, primary human dermal fibroblasts, and primary human umbilical vein endothelial cells (HUVEC) (not shown).
Cells were seeded on glass-bottom dishes (poly-D-lysine treated, MatTek Corp.) one day before the experiments. The cell monolayer was washed once with serum-free RPMI 1640 media and treated with 2 mL of RPMI 1640 media containing the tagged protein at a final concentration of 1 μM for 2 h. In the end, the cells were counter-stained with Hoechst 33342 and Alexa Fluor® 594 labeled Wheat Germ Agglutinin (WGA-AF594), respectively. […]

HeLa cells = test: Cellular delivery of tagged proteins, confocal microscopy; format: cell-based; details: for intracellular fluorescence pattern of cholesterol-tagged protein: protein tagged with CB-cholesterol tag
Description: Purified Coomassie blue-cholesterol tag powder was reconstituted with ethanol/water (v/v: 4/1) to a concentration of 1.6 mM and stored at 4° C. as a stock. Before tagging, the concentration of all the protein solutions was diluted to 25 μM. […] The mixture was quickly mixed by pipetting. The mixture was incubated in a water bath (37° C.) for 8 min and sonicated in an ultrasonic water bath for 30 seconds. After another round of 8-min water bath incubation at 37° C., the protein was ready for delivery.
Cells were seeded on glass-bottom dishes (poly-D-lysine treated, MatTek Corp.) one day before the experiments. The cell monolayer was washed once with serum-free RPMI 1640 media and treated with 2 mL of RPMI 1640 media containing the tagged protein at a final concentration of 1 μM for 2 h. In the end, the cells were counter-stained with Hoechst 33342 and Alexa Fluor® 594 labeled Wheat Germ Agglutinin (WGA-AF594), respectively. The cells were washed three times with RPMI 1640 and imaged on a Zeiss LSM 710 microscope.
To study the delivery effect at low temperature (4° C.), cell monolayers were pre-equilibrated with cold media (RPMI 1640) for 10 minutes at 4° C. and then treated with the cold solution of tagged protein for 3 h. The cells were washed with cold media and imaged immediately.

3,8-bis(tert-butyloxycarbonylamino)-5-(6-cholesterylcarbonylamino-hexyl)-6-phenylphenanthridine [tag 5]
RNAi effect (PPIB mRNA knockdown), tag screening [1]: significant RNAi effect

C=C1[C@@H](C)[C@H]2[C@H](Cc3ccccc3)NC(=O)[C@]23[C@H](OC(C)=O)/C=C/[C@@](C)(O)C(=O)[C@@H](C)C/C=C/[C@H]3[C@@H]1O [cytochalasin-D, reference compound]
actin filament structure after pretreatment (actin in HeLa cells; cells pretreated before incubating with LifeAct-Tag): completely disrupted

CC[n+]1c(-c2ccccc2)c2cc(N)ccc2c2ccc(N)cc21 [ethidium, reference compound]
fluorescence activation upon intercalation into siRNA (siRNA [2]): strong binding with siRNA
unwinding of siRNA duplex (siRNA [3]): does not

3,8-bis(tert-butyloxycarbonylamino)-5-(6-chloroquinecarboylamino-hexyl)-6-phenylphenanthridine [tag 13]
RNAi effect (PPIB mRNA knockdown), tag screening [1]: no or low effect

3,8-bis(tert-butyloxycarbonylamino)-5-(6-caprylcarbonylamino-hexyl)-6-phenylphenanthridine [tag 7]
RNAi effect (PPIB mRNA knockdown), tag screening [1]: no or low effect

3,8-bis(tert-butyloxycarbonylamino)-5-(6-stigmasterylcarbonylamino-hexyl)-6-phenylphenanthridine [tag 6]
RNAi effect (PPIB mRNA knockdown), tag screening [1]: significant RNAi effect

3,8-bis(tert-butyloxycarbonylamino)-5-(6-L-leucinylcarbonylamino-hexyl)-6-phenylphenanthridine [tag 2]
RNAi effect (PPIB mRNA knockdown), tag screening [1]: no or low effect

3,8-bis(tert-butyloxycarbonylamino)-5-(6-L-histinylcarbonylamino-hexyl)-6-phenylphenanthridine [tag 3]
RNAi effect (PPIB mRNA knockdown), tag screening [1]: no or low effect

3,8-bis(tert-butyloxycarbonylamino)-5-(6-L-argininylcarbonylamino-hexyl)-6-phenylphenanthridine [tag 4]
RNAi effect (PPIB mRNA knockdown), tag screening [1]: no or low effect

aprotinin
cytosolic delivery in additional cell types [4]: Efficient cytosolic delivery
intracellular fluorescence pattern of cholesterol-tagged protein (HeLa cells; HeLa cells): bright and homogeneous fluorescence intracellular distribution
intracellular fluorescence pattern without the cholesterol tag (HeLa cells; HeLa cells, same condition, no tag): only a few punctate fluorescent spots
uptake by cells at 4° C. (HeLa cells; low tag/protein ratio): virtually confined to the cell membrane
uptake by cells at 4° C. (HeLa cells; optimal tag/aprotinin ratio): bright and homogeneous intracellular fluorescence
uptake by cells at 4° C. (HeLa cells; without the tag): negligible

3,8-bis(tert-butyloxycarbonylamino)-5-(6-pentadecylcarbonylamino-hexyl)-6-phenylphenanthridine [tag 8]
RNAi effect (PPIB mRNA knockdown), tag screening [1]: no or low effect

3,8-bis(tert-butyloxycarbonylamino)-5-(6-cerotylcarbonylamino-hexyl)-6-phenylphenanthridine [tag 9]
intercalation of tag into siRNA (fluorescence enhancement) (siRNA [2]): minor fluorescence enhancement; also recorded: failed to intercalate into siRNA
RNAi effect (PPIB mRNA knockdown), tag screening [1]: failed to lower the PPIB mRNA level

lysozyme: protein, 15 kDa, fluorescently labeled cargo
intracellular fluorescence pattern of cholesterol-tagged protein (HeLa cells; HeLa cells): diffused distribution while having a few punctate bright spots
intracellular fluorescence distribution (HeLa cells; tag:protein molar ratio 1:1): only punctate intracellular fluorescence distribution
intracellular fluorescence distribution (HeLa cells; tag:protein molar ratio 3:1): only punctate intracellular fluorescence distribution
intracellular fluorescence distribution (HeLa cells; tag:protein molar ratio 6:1): diffused fluorescence signal started to appear
intracellular fluorescence distribution (HeLa cells; tag:protein molar ratio 8:1): significant direct membrane permeation

Coomassie blue, dicholest carbamyl 3-(3-propyl dimethyl amino)propyl sulfonamide [cholesterol tag]
imaging quality of delivered LifeAct-GFP (actin in HeLa cells; same LifeAct-GFP concentration): significantly better contrast

3,8-bis(tert-butyloxycarbonylamino)-5-[6-(1,2-dipalmitin)-carboylamino-hexyl]-6-phenylphenanthridine [tag 14]
intercalation of tag into siRNA (fluorescence enhancement) (siRNA [2]): minor fluorescence enhancement; also recorded: failed to intercalate into siRNA
RNAi effect (PPIB mRNA knockdown), tag screening [1]: no RNAi effect

acridinium [reference compound]
fluorescence activation upon intercalation into siRNA (siRNA [2]): strong binding with siRNA
unwinding of siRNA duplex (siRNA [3]): unwound the siRNA double helix

Source: US20220107246A1, “NONCOVALENT TAGS AND RELATED METHODS FOR CYTOSOLIC DELIVERY OF MACROBIOMOLECULES” (University of Washington, priority 2019, published 2022)
